Columns and labels:
[1] = target: T1, Alpha-1D adrenergic receptor (Homo sapiens, UniProt P25100); assay type: cell membranes, HEK293, Membrane; settings: for Ki: read-out: Ki; for all read-outs here: in other assays of this panel Not Active means under 50% inhibition at 10 µM
T1 sequence (P25100 whole entry): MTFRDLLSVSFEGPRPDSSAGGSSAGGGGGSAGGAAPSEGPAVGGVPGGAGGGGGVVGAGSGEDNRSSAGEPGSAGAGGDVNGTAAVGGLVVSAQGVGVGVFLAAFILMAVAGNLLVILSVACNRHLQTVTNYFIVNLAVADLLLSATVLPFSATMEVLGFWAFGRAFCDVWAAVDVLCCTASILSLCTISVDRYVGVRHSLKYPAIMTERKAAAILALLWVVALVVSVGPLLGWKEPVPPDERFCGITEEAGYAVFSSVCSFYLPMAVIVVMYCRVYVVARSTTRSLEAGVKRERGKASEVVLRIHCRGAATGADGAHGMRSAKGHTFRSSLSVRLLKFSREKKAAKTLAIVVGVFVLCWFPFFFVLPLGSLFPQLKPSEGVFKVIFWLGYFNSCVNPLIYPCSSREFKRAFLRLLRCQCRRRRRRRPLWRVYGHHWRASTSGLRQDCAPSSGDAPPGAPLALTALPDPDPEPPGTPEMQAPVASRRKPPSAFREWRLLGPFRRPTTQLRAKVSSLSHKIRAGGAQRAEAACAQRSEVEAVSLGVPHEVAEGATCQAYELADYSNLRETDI

[2] = target: Beta-2 adrenergic receptor (Homo sapiens, UniProt P07550); assay: DRUGMATRIX: Adrenergic beta2 radioligand binding (ligand: [3H] CGP-12177); assay type: cell membranes, Membrane; settings: cho; Not Active = under 50% inhibition at 10 µM
Beta-2 adrenergic receptor, sequence (P07550 whole entry): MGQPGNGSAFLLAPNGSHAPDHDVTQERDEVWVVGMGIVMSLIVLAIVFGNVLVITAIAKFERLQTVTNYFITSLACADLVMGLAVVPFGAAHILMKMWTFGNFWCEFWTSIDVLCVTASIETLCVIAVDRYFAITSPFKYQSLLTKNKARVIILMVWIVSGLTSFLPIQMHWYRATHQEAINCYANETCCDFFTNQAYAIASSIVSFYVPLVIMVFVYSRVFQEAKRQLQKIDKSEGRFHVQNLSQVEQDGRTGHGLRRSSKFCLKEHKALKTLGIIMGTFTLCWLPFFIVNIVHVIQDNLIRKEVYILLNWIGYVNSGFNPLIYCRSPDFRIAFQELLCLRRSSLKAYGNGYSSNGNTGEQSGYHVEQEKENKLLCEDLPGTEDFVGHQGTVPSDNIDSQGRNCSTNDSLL

B2 bradykinin receptor = target: T2, B2 bradykinin receptor (Homo sapiens, UniProt P30411); assay type: cell membranes, Membrane; settings: chem-1; note: in other assays of this panel Not Active means under 50% inhibition at 10 µM
T2 sequence (P30411 whole entry): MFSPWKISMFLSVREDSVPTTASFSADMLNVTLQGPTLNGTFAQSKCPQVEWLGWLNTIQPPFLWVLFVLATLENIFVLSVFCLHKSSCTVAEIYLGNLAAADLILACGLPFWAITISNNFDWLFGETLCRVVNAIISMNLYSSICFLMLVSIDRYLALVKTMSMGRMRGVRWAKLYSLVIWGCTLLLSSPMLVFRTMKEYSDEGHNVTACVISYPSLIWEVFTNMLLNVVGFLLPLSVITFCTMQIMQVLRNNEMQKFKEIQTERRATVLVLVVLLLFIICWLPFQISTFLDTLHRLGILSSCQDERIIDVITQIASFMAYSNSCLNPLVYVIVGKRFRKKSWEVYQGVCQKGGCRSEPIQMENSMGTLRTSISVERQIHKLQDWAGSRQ

[3] = target: Sigma non-opioid intracellular receptor 1 (Homo sapiens, UniProt Q99720); assay: DRUGMATRIX: Sigma1 radioligand binding (ligand: [3H] Haloperidol); assay type: cell membranes, Jurkat, Membrane; settings: Not Active = under 50% inhibition at 10 µM; for Ki: read-out: Ki
Sigma non-opioid intracellular receptor 1, sequence (Q99720 whole entry): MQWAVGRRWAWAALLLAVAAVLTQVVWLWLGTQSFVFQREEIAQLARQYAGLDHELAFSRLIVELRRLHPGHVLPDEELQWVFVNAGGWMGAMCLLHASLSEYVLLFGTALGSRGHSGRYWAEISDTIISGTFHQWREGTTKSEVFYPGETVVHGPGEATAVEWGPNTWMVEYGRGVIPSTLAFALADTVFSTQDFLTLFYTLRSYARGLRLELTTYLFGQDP

Substance-P receptor = Substance-P receptor (Homo sapiens, UniProt P25103); assay type: cell membranes, CHO, Membrane; note: in other assays of this panel Not Active means under 50% inhibition at 10 µM
Substance-P receptor, sequence (P25103 whole entry): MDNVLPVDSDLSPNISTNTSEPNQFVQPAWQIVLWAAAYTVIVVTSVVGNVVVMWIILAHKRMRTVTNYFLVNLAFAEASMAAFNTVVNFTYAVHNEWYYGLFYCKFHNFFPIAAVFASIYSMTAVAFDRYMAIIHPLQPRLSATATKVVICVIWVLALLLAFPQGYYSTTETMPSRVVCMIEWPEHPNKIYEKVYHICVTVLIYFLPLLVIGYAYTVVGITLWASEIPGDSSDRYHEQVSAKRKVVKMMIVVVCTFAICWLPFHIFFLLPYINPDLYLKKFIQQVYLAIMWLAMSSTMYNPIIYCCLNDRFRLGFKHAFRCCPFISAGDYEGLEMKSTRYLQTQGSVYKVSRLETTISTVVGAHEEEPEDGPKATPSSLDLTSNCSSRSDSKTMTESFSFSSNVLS

[4] = target: T3, Muscarinic acetylcholine receptor M4 (Homo sapiens, UniProt P08173); assay type: cell membranes, CHO-K1, Membrane; settings: for Ki: read-out: Ki; for all read-outs here: in other assays of this panel Not Active means under 50% inhibition at 10 µM
T3 sequence (P08173 whole entry): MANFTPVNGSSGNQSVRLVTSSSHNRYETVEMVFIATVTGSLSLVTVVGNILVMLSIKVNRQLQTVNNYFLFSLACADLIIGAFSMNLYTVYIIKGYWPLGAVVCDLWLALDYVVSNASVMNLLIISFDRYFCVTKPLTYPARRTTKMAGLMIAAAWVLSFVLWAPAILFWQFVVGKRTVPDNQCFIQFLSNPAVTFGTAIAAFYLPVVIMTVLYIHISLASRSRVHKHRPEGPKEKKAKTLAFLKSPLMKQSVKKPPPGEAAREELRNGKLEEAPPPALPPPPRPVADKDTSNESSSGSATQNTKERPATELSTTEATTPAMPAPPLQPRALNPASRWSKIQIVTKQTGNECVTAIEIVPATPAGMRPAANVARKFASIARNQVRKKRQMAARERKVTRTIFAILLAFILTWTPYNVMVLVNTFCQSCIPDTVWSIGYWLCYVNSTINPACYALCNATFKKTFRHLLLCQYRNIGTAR

Compound | IC50 ([1]; hek293) | IC50 [2] | IC50 (B2 bradykinin receptor) | IC50 ([3]; jurkat) | IC50 (Substance-P receptor; cho) | IC50 ([4]; cho-k1) | IC50 ([1]; read-out: IC50) [nM] | Ki [1] [nM] | IC50 ([3]; read-out: IC50) [nM] | Ki [3] [nM] | IC50 ([4]; read-out: IC50) [nM] | Ki [4] [nM] | IC50 (Substance-P receptor; read-out: IC50) [nM] | Ki (Substance-P receptor; read-out: Ki) [nM]
O=c1ncn2nc(Sc3ccc(F)cc3F)ccc2c1-c1c(Cl)cccc1Cl [NEFLAMAPIMOD] | Not Active | Not Active | Not Active | Not Active | Not Active | Not Active |  |  |  |  |  |  |  | 
CN1CCN(CCCN2c3ccccc3Sc3ccc(Cl)cc32)CC1 [PROCHLORPERAZINE] |  | Not Active | Not Active |  | Not Active |  | 34 | 16 | 54 | 23 | 1360 | 190 |  | 
CO[C@H]1/C=C/O[C@@]2(C)Oc3c(C)c(O)c4c(O)c(c(/C=N/N5CCN(C)CC5)c(O)c4c3C2=O)NC(=O)/C(C)=C\C=C\[C@H](C)[C@H](O)[C@@H](C)[C@@H](O)[C@@H](C)[C@H](OC(C)=O)[C@@H]1C [RIFAMPIN] | Not Active | Not Active | Not Active | Not Active | Not Active | Not Active |  |  |  |  |  |  |  | 
Nc1nc2ccc(OC(F)(F)F)cc2s1 [RILUZOLE] | Not Active | Not Active | Not Active | Not Active | Not Active | Not Active |  |  |  |  |  |  |  | 
Cc1nc2n(c(=O)c1CCN1CCC(c3noc4cc(F)ccc34)CC1)CCCC2 [RISPERIDONE] |  | Not Active | Not Active |  | Not Active | Not Active |  |  |  |  |  |  |  | 
C=CCC1(C(C)CCC)C(=O)NC(=O)NC1=O (stereo unspecified) [SECOBARBITAL] | Not Active | Not Active | Not Active | Not Active | Not Active | Not Active |  |  |  |  |  |  |  | 
C[C@@H]1CN(c2c(F)c(N)c3c(=O)c(C(=O)O)cn(C4CC4)c3c2F)C[C@H](C)N1 [SPARFLOXACIN] | Not Active | Not Active | Not Active | Not Active | Not Active | Not Active |  |  |  |  |  |  |  | 
Cc1noc(NS(=O)(=O)c2ccc(N)cc2)c1C [SULFISOXAZOLE] | Not Active | Not Active | Not Active | Not Active | Not Active | Not Active |  |  |  |  |  |  |  | 
CSc1ccc(/C=C2/C(C)=C(CC(=O)O)c3cc(F)ccc32)cc1 [SULINDAC SULFIDE] | Not Active | Not Active | Not Active | Not Active | Not Active | Not Active |  |  |  |  |  |  |  | 
Nc1c2c(nc3ccccc13)CCCC2 [TACRINE] | Not Active | Not Active | Not Active | Not Active | Not Active | Not Active |  |  |  |  |  |  |  | 
CC/C(=C(\c1ccccc1)c1ccc(OCCN(C)C)cc1)c1ccccc1 [TAMOXIFEN] |  | Not Active |  |  |  |  | 4980 | 2450 |  |  | 4820 | 672 | 15700 | 8540
CC(C)N1CCN(c2ccc(OCC3COC(Cn4cncn4)(c4ccc(Cl)cc4Cl)O3)cc2)CC1 (stereo unspecified) [TERCONAZOLE] |  | Not Active | Not Active |  | Not Active |  | 14400 | 7070 | 508 | 214 | 13700 | 1910 |  | 
Nc1nc2nc[nH]c2c(=S)[nH]1 [THIOGUANINE] | Not Active | Not Active | Not Active | Not Active | Not Active | Not Active |  |  |  |  |  |  |  | 
Cc1cccc(N(C)C(=S)Oc2ccc3ccccc3c2)c1 [TOLNAFTATE] | Not Active | Not Active | Not Active | Not Active | Not Active | Not Active |  |  |  |  |  |  |  | 
NC[C@H]1CC[C@H](C(=O)O)CC1 [TRANEXAMIC ACID] | Not Active | Not Active | Not Active | Not Active | Not Active | Not Active |  |  |  |  |  |  |  | 
CC1(C)O[C@@H]2C[C@H]3[C@@H]4CCC5=CC(=O)C=C[C@]5(C)[C@@]4(F)[C@@H](O)C[C@]3(C)[C@]2(C(=O)CO)O1 [TRIAMCINOLONE ACETONIDE] | Not Active | Not Active | Not Active | Not Active | Not Active | Not Active |  |  |  |  |  |  |  | 

Source: ChEMBL document CHEMBL1909046, “DrugMatrix in vitro pharmacology data”
